Among the data in the OligoGym collection are 3 h FOB score values, retold here.

HELM strings list units from the 5' end as sugar, base in round brackets, then linkage (d deoxyribose, r ribose, m 2'-O-methyl, p phosphodiester). Strings are as the collection lists them; they lack the last nucleoside at the 3' end of the tested compound. [moe] = 2'-O-(2-methoxyethyl) (MOE); [sp] = phosphorothioate linkage; [m5C] = 5-methylcytosine

In the data set the target is PRNP. Kind of data set: mouse, dose not given. Particulars: ASO.

Substance “RNA1{[moe](T)[sp].[moe](G)p.[moe](T)p.[moe]([m5C])p.[moe](A)[sp].d(G)[sp].d(T)[sp].d(T)[sp].d(T)[sp].d(T)[sp].d(T)[sp].d([m5C])[sp].d([m5C])[sp].d([m5C])[sp].d([m5C])[sp].[moe](A)p.[moe]([m5C])p.[moe](A)[sp].[moe](T)}$$$$ (last 3' nucleoside missing)” came in with a 3 h FOB score of 0 score 0-7.
“RNA1{[moe](G)[sp].[moe]([m5C])p.[moe](T)p.[moe](T)p.[moe](A)[sp].d([m5C])[sp].d(T)[sp].d([m5C])[sp].d(G)[sp].d(G)[sp].d([m5C])[sp].d(T)[sp].d(T)[sp].d(G)[sp].d(T)[sp].[moe](T)p.[moe]([m5C])p.[moe]([m5C])[sp].[moe](A)}$$$$ (last 3' nucleoside missing)”: the 3 h FOB score worked out at 5.25 score 0-7.
The figure for “RNA1{[moe]([m5C])[sp].[moe]([m5C])p.[moe](A)p.[moe](G)p.[moe](A)[sp].d(G)[sp].d(G)[sp].d(T)[sp].d(T)[sp].d([m5C])[sp].d(A)[sp].d(G)[sp].d(T)[sp].d(G)[sp].d(T)[sp].[moe](T)p.[moe](G)p.[moe](T)[sp].[moe](G)}$$$$ (last 3' nucleoside missing)” is 6.25 score 0-7.
Substance “RNA1{[moe](T)[sp].[moe]([m5C])p.[moe](T)p.[moe](T)p.[moe](T)[sp].d(T)[sp].d([m5C])[sp].d(T)[sp].d(T)[sp].d(T)[sp].d(G)[sp].d([m5C])[sp].d(A)[sp].d([m5C])[sp].d(A)[sp].[moe]([m5C])p.[moe](T)p.[moe](G)[sp].[moe](A)}$$$$ (last 3' nucleoside missing)” came in with a 3 h FOB score of 3 score 0-7.
Under “RNA1{[moe](T)[sp].[moe]([m5C])p.[moe](T)p.[moe](A)p.[moe](T)[sp].d(G)[sp].d(T)[sp].d(T)[sp].d(T)[sp].d(T)[sp].d([m5C])[sp].d([m5C])[sp].d(A)[sp].d(G)[sp].d(T)[sp].[moe](G)p.[moe]([m5C])p.[moe]([m5C])[sp].[moe]([m5C])}$$$$ (last 3' nucleoside missing)” stands 0 score 0-7; under “RNA1{[moe]([m5C])[sp].[moe](A)p.[moe](G)p.[moe](T)p.[moe](G)[sp].d(T)[sp].d(T)[sp].d([m5C])[sp].d([m5C])[sp].d(A)[sp].d(T)[sp].d([m5C])[sp].d([m5C])[sp].d(T)[sp].d([m5C])[sp].[moe]([m5C])p.[moe](A)p.[moe](G)[sp].[moe](G)}$$$$ (last 3' nucleoside missing)”, 1 score 0-7.
Under “RNA1{[moe](T)[sp].[moe](G)p.[moe](G)p.[moe](T)p.[moe](T)[sp].d(A)[sp].d(G)[sp].d([m5C])[sp].d(T)[sp].d(T)[sp].d(T)[sp].d(T)[sp].d(T)[sp].d(T)[sp].d(T)[sp].[moe]([m5C])p.[moe](A)p.[moe]([m5C])[sp].[moe](T)}$$$$ (last 3' nucleoside missing)” stands 6.25 score 0-7; under “RNA1{[moe](T)[sp].[moe](G)p.[moe](T)p.[moe](A)p.[moe](G)[sp].d(A)[sp].d(A)[sp].d(G)[sp].d([m5C])[sp].d(A)[sp].d(T)[sp].d(T)[sp].d(G)[sp].d(T)[sp].d(A)[sp].[moe]([m5C])p.[moe]([m5C])p.[moe](T)[sp].[moe]([m5C])}$$$$ (last 3' nucleoside missing)”, 4.5 score 0-7; under “RNA1{[moe]([m5C])[sp].[moe](T)p.[moe](A)p.[moe](T)p.[moe](G)[sp].d(A)[sp].d(T)[sp].d(G)[sp].d(A)[sp].d(T)[sp].d(G)[sp].d(G)[sp].d(T)[sp].d(G)[sp].d([m5C])[sp].[moe](T)p.[moe](T)p.[moe](T)[sp].[moe]([m5C])}$$$$ (last 3' nucleoside missing)”, 6 score 0-7.
The figure for “RNA1{[moe](T)[sp].[moe](T)p.[moe](T)p.[moe](G)p.[moe](G)[sp].d(A)[sp].d(G)[sp].d(G)[sp].d([m5C])[sp].d(T)[sp].d([m5C])[sp].d(T)[sp].d(T)[sp].d(T)[sp].d(T)[sp].[moe](A)p.[moe](G)p.[moe](G)[sp].[moe](T)}$$$$ (last 3' nucleoside missing)” is 4 score 0-7; for “RNA1{[moe](A)[sp].[moe](G)p.[moe](T)p.[moe](A)p.[moe](T)[sp].d([m5C])[sp].d(A)[sp].d(T)[sp].d(G)[sp].d(T)[sp].d(G)[sp].d(G)[sp].d([m5C])[sp].d([m5C])[sp].d(T)[sp].[moe]([m5C])p.[moe]([m5C])p.[moe](T)[sp].[moe](A)}$$$$ (last 3' nucleoside missing)” it is 5.75 score 0-7; for “RNA1{[moe]([m5C])[sp].[moe](G)p.[moe](G)p.[moe](G)p.[moe](T)[sp].d(T)[sp].d(T)[sp].d(T)[sp].d([m5C])[sp].d(T)[sp].d(T)[sp].d(A)[sp].d(A)[sp].d(A)[sp].d(A)[sp].[moe](T)p.[moe](G)p.[moe](G)[sp].[moe](A)}$$$$ (last 3' nucleoside missing)” it is 2 score 0-7.
Substance “RNA1{[moe](G)[sp].[moe]([m5C])p.[moe](A)p.[moe]([m5C])p.[moe](A)p.[moe]([m5C])p.d(T)[sp].d(G)[sp].d(A)[sp].d([m5C])[sp].d([m5C])[sp].d(A)[sp].d(T)[sp].d(T)[sp].d(T)[sp].d(T)[sp].[moe](T)p.[moe](T)[sp].[moe](A)}$$$$ (last 3' nucleoside missing)” showed a 3 h FOB score of 0 score 0-7.
“RNA1{[moe](G)[sp].[moe]([m5C])p.[moe](T)p.[moe](A)p.[moe](T)[sp].d(G)[sp].d(A)[sp].d(A)[sp].d(A)[sp].d(T)[sp].d([m5C])[sp].d(T)[sp].d([m5C])[sp].d(T)[sp].d(A)[sp].[moe]([m5C])p.[moe](T)p.[moe](A)[sp].[moe](A)}$$$$ (last 3' nucleoside missing)” displayed a 3 h FOB score of 2.5 score 0-7.
The figure for “RNA1{[moe](G)[sp].[moe](T)p.[moe](T)p.[moe]([m5C])p.[moe](A)[sp].d(G)[sp].d(T)[sp].d(G)[sp].d(T)[sp].d(T)[sp].d(G)[sp].d(T)[sp].d(G)[sp].d(A)[sp].d([m5C])[sp].[moe](A)p.[moe](A)p.[moe](T)[sp].[moe](A)}$$$$ (last 3' nucleoside missing)” is 6.75 score 0-7; for “RNA1{[moe]([m5C])[sp].[moe](A)p.[moe](A)p.[moe](G)p.[moe]([m5C])[sp].d(A)[sp].d(G)[sp].d(T)[sp].d(T)[sp].d([m5C])[sp].d(T)[sp].d(T)[sp].d(T)[sp].d(T)[sp].d([m5C])[sp].[moe](T)p.[moe](T)p.[moe](T)[sp].[moe](G)}$$$$ (last 3' nucleoside missing)” it is 2.25 score 0-7; for “RNA1{[moe](T)[sp].[moe](G)p.[moe](G)p.[moe](G)p.[moe](A)[sp].d(G)[sp].d(T)[sp].d(A)[sp].d(T)[sp].d([m5C])[sp].d(A)[sp].d(A)[sp].d(T)[sp].d(T)[sp].d(T)[sp].[moe](A)p.[moe](A)p.[moe](G)[sp].[moe]([m5C])}$$$$ (last 3' nucleoside missing)” it is 0 score 0-7.
The figure for “RNA1{[moe](G)[sp].[moe](T)p.[moe]([m5C])p.[moe](A)p.[moe](G)p.d(T)[sp].d(T)[sp].d(T)[sp].d(T)[sp].d(T)[sp].d([m5C])[sp].d([m5C])[sp].d([m5C])[sp].d([m5C])[sp].[moe](A)[sp].[moe]([m5C])p.[moe](A)p.[moe](T)}$$$$ (last 3' nucleoside missing)” is 0 score 0-7; for “RNA1{[moe](G)[sp].[moe](T)p.[moe](T)p.[moe](G)p.[moe](T)[sp].d(T)[sp].d(G)[sp].d(A)[sp].d(T)[sp].d(T)[sp].d(T)[sp].d(T)[sp].d(T)[sp].d([m5C])[sp].d([m5C])[sp].[moe](A)p.[moe](G)p.[moe](A)[sp].[moe](A)}$$$$ (last 3' nucleoside missing)” it is 4.75 score 0-7.
For “RNA1{[moe](G)[sp].[moe]([m5C])p.[moe](A)p.[moe](G)p.[moe](A)[sp].d(A)[sp].d(A)[sp].d(G)[sp].d(T)[sp].d(A)[sp].d(G)[sp].d([m5C])[sp].d(T)[sp].d(A)[sp].d(T)[sp].[moe]([m5C])p.[moe](A)p.[moe](T)[sp].[moe](T)}$$$$ (last 3' nucleoside missing)”, the 3 h FOB score was 4.25 score 0-7.
The figure for “RNA1{[moe]([m5C])[sp].[moe](T)p.[moe](A)p.[moe](T)p.[moe](G)p.d(T)[sp].d(T)[sp].d(T)[sp].d(T)[sp].d([m5C])[sp].d([m5C])[sp].d(A)[sp].d(G)[sp].d(T)[sp].[moe](G)[sp].[moe]([m5C])p.[moe]([m5C])p.[moe]([m5C])}$$$$ (last 3' nucleoside missing)” is 0.75 score 0-7; for “RNA1{[moe](T)[sp].[moe]([m5C])p.[moe](T)p.[moe](A)p.d(T)[sp].d(G)[sp].d(T)[sp].d(T)[sp].d(T)[sp].d(T)[sp].d([m5C])[sp].d([m5C])[sp].d(A)[sp].d(G)[sp].[moe](T)p.[moe](G)p.[moe]([m5C])p.[moe]([m5C])[sp].[moe]([m5C])}$$$$ (last 3' nucleoside missing)” it is 1 score 0-7; for “RNA1{[moe](G)[sp].[moe](T)p.[moe](A)p.[moe](T)p.[moe](G)[sp].d(T)[sp].d([m5C])[sp].d(A)[sp].d(A)[sp].d(A)[sp].d(A)[sp].d(T)[sp].d([m5C])[sp].d(A)[sp].d(T)[sp].[moe](T)p.[moe]([m5C])p.[moe](T)[sp].[moe](G)}$$$$ (last 3' nucleoside missing)” it is 6 score 0-7.
Under “RNA1{[moe](T)[sp].[moe](T)p.[moe](T)p.[moe](G)p.[moe]([m5C])[sp].d(T)[sp].d(G)[sp].d(T)[sp].d(T)[sp].d(A)[sp].d(T)[sp].d(A)[sp].d([m5C])[sp].d(T)[sp].d(T)[sp].[moe](T)p.[moe](T)p.[moe](A)[sp].[moe]([m5C])}$$$$ (last 3' nucleoside missing)” stands 1.25 score 0-7; under “RNA1{[moe]([m5C])[sp].[moe](T)p.[moe](A)p.[moe](T)p.[moe](G)[sp].d(T)[sp].d(T)[sp].d(T)[sp].d(T)[sp].d([m5C])[sp].d([m5C])[sp].d(A)[sp].d(G)[sp].[moe](T)p.[moe](G)p.[moe]([m5C])[sp].[moe]([m5C])}$$$$ (last 3' nucleoside missing)”, 0 score 0-7.
